Laboratory results as given in patent publication US20230146455A1, “TREATMENT OF INFLAMMATORY DISEASES WITH PEPTIDES AND PHARMACEUTICAL COMPOSITIONS” (Yuyu Pharma, Inc., priority 2020, published 2023).
“And” between values parts separate entries of the source, which are not always exact repeats. Equal entries are not always repeated. Where a SMILES comes first, the peptide text is derived from it. [ ]: non-standard residue; d: D form. Hyp = O=C(O)[C@@H]1C[C@@H](O)CN1

Experiments:
[1] = tested on: TIMP-1; assay: Example 8 main study Luminex, LPS hPBMCs: TIMP-1; assay type: cell-based, human
Procedure: (§1) Human PBMCs were pretreated with YY-101, YDE-011, YDE-043 or reference compound; Xiidra® at various concentration (ranging from […] to 500 nM) for 2 h before stimulation. An equal volume of 0.5% DMSO was used as a vehicle control. Then, the cells were treated with LPS at 5 ug/ml, which was selected based on the pilot study. The supernatants from treated cells were harvested at 24 h and placed in a 96 well for Luminex cytokine & chemokine profiling using a Luminex 200 multiplex assay (Luminex; R&D system, USA).
(§2) The main study arm with triplicate wells per group in a 24-well plate: • 1. Blank • 2. PBMC: 0.5% DMSO • 3. PBMC+LPS (5 ug/ml) • 4. PBMC+YY-101 500 nM • 5. PBMC+YY-101 50 nM • 6. PBMC+YY-101 5 nM • 7. PBMC+YY-101 0.5 nM • 8. PBMC+LPS (5 ug/ml)+Xiidra® 500 nM • 9. PBMC+LPS (5 ug/ml)+Xiidra® 50 nM • 10. PBMC+LPS (5 ug/ml)+Xiidra® 5 nM • 11. PBMC+LPS (5 ug/ml)+Xiidra® 0.5 nM • 12. PBMC+LPS (5 ug/ml)+Xiidra® 0.05 nM • 13. PBMC+LPS (5 ug/ml)+Xiidra® 0.005 nM • 14. PBMC+LPS (5 ug/ml)+YY-101 500 nM • 15. PBMC+LPS (5 ug/ml)+YY-101 50 nM • 16. PBMC+LPS (5 ug/ml)+YY-101 5 nM • 17. PBMC+LPS (5 ug/ml)+YY-101 0.5 nM • 18. PBMC+LPS (5 ug/ml)+YY-101 0.05 nM • 19. PBMC+LPS (5 ug/ml)+YY-101 0.005 nM • 20. PBMC+LPS (5 ug/ml)+YDE-011 500 nM • 21. PBMC+LPS (5 ug/ml)+YDE-011 50 nM • 22. PBMC+LPS (5 ug/ml)+YDE-011 5 nM • 23. PBMC+LPS (5 ug/ml)+YDE-011 0.5 nM • 24. PBMC+LPS (5 ug/ml)+YDE-011 0.05 nM • 25. PBMC+LPS (5 ug/ml)+YDE-011 0.005 nM • 26. PBMC+LPS (5 ug/ml)+YDE-043 500 nM • 27. PBMC+LPS (5 ug/ml)+YDE-043 50 nM • 28. PBMC+LPS (5 ug/ml)+YDE-043 5 nM • 29. PBMC+LPS (5 ug/ml)+YDE-043 0.5 nM • 30. PBMC+LPS (5 ug/ml)+YDE-043 0.05 nM • 31. PBMC+LPS (5 ug/ml)+YDE-043 0.005 nM
(§3) Multiplex assay was used to measure 30 cytokines and chemokines. The 1:200 diluted cell supernatant and serial dilution of the standard were dispensed into a 96 well plate at 50 ul/well. Then, the pre-mixed cocktail of antibody-coated magnetic beads was dispensed at 50 ul/well and incubated at room temperature for 2 h in a horizontal orbital microplate shaker at 800±500 rpm. The beads were washed using a magnetic device to prevent loss. The biotin-antibody was dispensed in 50 ul of each well and incubated at room temperature for 1 h in a shaker at 800±500 rpm. After washing, streptavidin-PE was added at 50 ul/well and incubated at room temperature for 30 min in a shaker under the same conditions. Finally, after washing, wash buffer (100 ul/well) was added to the plate and incubated in a shaker for 2 min. The Luminex™ 200 setting were set according to the manufacturer's protocol. The data was calculated with a standard five-parameter logistic nonlinear regression analysis of the data (xPonent software 4.2, USA). Results were presented as concentration (ng/ml or pg/ml).

[2] = tested on: IL-8/CXCL8; assay: Example 8 main study Luminex, LPS hPBMCs: IL-8/CXCL8; assay type: cell-based, human
Procedure: as §1, §2, §3

[3] = PBMC + LPS(5 ug/ml), test article 0.005 nM
[4] = PBMC + LPS(5 ug/ml), test article 0.05 nM
[5] = PBMC + LPS(5 ug/ml), test article 0.5 nM
[6] = PBMC + LPS(5 ug/ml), test article 5 nM
[7] = PBMC + LPS(5 ug/ml), test article 50 nM
[8] = PBMC + LPS(5 ug/ml), test article 500 nM
[9] = PBMC without LPS, test article 0.5 nM
[10] = PBMC without LPS, test article 5 nM
[11] = PBMC without LPS, test article 0.05 uM
[12] = PBMC without LPS, test article 50 nM
[13] = PBMC without LPS, test article 500 nM

## CC(C)C[C@H](NC(=O)CNC(=O)[C@H](CC(=O)O)NC(=O)[C@H](CCC(N)=O)NC(=O)CNC(=O)[C@@H]1C[C@@H](O)CN1)C(=O)N[C@@H](C)C(=O)NCC(=O)N1CCC[C@H]1C(=O)N[C@@H](CCCCN)C(=O)O [YY-101] (H-[Hyp]GQDGLAGPK-OH; N-terminus and C-terminus assumed)
[1]; [3]
  TIMP-1 Concentration (pg/ml), Mean: 3912.8 pg/mL
  TIMP-1 Concentration (pg/ml), single replicates: 4259.2 pg/ml (2×) and 3220.1 pg/ml
[1]; [4]
  TIMP-1 Concentration (pg/ml), Mean: 3820.5 pg/mL
  TIMP-1 Concentration (pg/ml), single replicates: 3935.4 pg/ml (2×) and 3590.9 pg/ml
[1]; [5]
  TIMP-1 Concentration (pg/ml), Mean: 4128.5 pg/mL
  TIMP-1 Concentration (pg/ml), single replicates: 3935.4 pg/mL and 3590.9 pg/mL and 4859.3 pg/mL
[1]; [6]
  TIMP-1 Concentration (pg/ml), Mean: 3696.9 pg/mL
  TIMP-1 Concentration (pg/ml), single replicates: 3935.4 pg/ml (2×) and 3220.1 pg/ml
[1]; [7]
  TIMP-1 Concentration (pg/ml), Mean: 3696.9 pg/mL
  TIMP-1 Concentration (pg/ml), single replicates: 3935.4 pg/ml (2×) and 3220.1 pg/ml
[1]; [8]
  TIMP-1 Concentration (pg/ml), Mean: 3696.9 pg/mL
  TIMP-1 Concentration (pg/ml), single replicates: 3935.4 pg/ml (2×) and 3220.1 pg/ml
[1]; [9]
  TIMP-1 Concentration (pg/ml), Mean: 6580.9 pg/mL
  TIMP-1 Concentration (pg/ml), single replicates: 6173.1 pg/mL and 6988.8 pg/mL
[1]; [10]
  TIMP-1 Concentration (pg/ml), Mean: 6228.8 pg/mL
  TIMP-1 Concentration (pg/ml), single replicates: 6531.0 pg/mL and 5926.6 pg/mL
[1]; [11]
  TIMP-1 Concentration (pg/ml), Mean: 8751.3 pg/mL
  TIMP-1 Concentration (pg/ml), single replicates: 10402.5 pg/mL and 7100.2 pg/mL
[1]; [12]
  TIMP-1 Concentration (pg/ml), Mean: 6928.9 pg/mL
  TIMP-1 Concentration (pg/ml), single replicates: 7210.4 pg/mL and 6647.4 pg/mL
[1]; [13]
  TIMP-1 Concentration (pg/ml), Mean: 7209.9 pg/mL
  TIMP-1 Concentration (pg/ml), single replicates: 7100.2 pg/mL and 7319.6 pg/mL
[2]; PBMC + LPS(5 ug/ml) + test article 0.005 nM
  IL-8/CXCL8 Concentration, Mean: 58481.9 pg/mL
[2]; PBMC + LPS(5 ug/ml) + test article 0.005 nM, single replicates (1st, 2nd, 3rd)
  IL-8/CXCL8 Concentration: 61546.6 pg/mL and 56884.9 pg/mL and 57014.3 pg/mL
[2]; PBMC + LPS(5 ug/ml) + test article 0.05 nM
  IL-8/CXCL8 Concentration, Mean: 59990.6 pg/mL
[2]; PBMC + LPS(5 ug/ml) + test article 0.05 nM, single replicates (1st, 2nd, 3rd)
  IL-8/CXCL8 Concentration: 57359.8 pg/mL and 60536.4 pg/mL and 62075.6 pg/mL
[2]; PBMC + LPS(5 ug/ml) + test article 0.5 nM
  IL-8/CXCL8 Concentration, Mean: 60251.0 pg/mL
[2]; PBMC + LPS(5 ug/ml) + test article 0.5 nM, single replicates (1st, 2nd, 3rd)
  IL-8/CXCL8 Concentration: 60909.2 pg/mL and 57900.7 pg/mL and 61943.2 pg/mL
[2]; PBMC + LPS(5 ug/ml) + test article 5 nM
  IL-8/CXCL8 Concentration, Mean: 57315.8 pg/mL
[2]; PBMC + LPS(5 ug/ml) + test article 5 nM, single replicates (1st, 2nd, 3rd)
  IL-8/CXCL8 Concentration: 55583.6 pg/mL and 55980.8 pg/mL and 60383.1 pg/mL
[2]; PBMC + LPS(5 ug/ml) + test article 50 nM
  IL-8/CXCL8 Concentration, Mean: 54680.4 pg/mL
[2]; PBMC + LPS(5 ug/ml) + test article 50 nM, single replicates (1st, 2nd, 3rd)
  IL-8/CXCL8 Concentration: 54759.1 pg/mL and 53065.0 pg/mL and 56217.2 pg/mL
[2]; PBMC + LPS(5 ug/ml) + test article 500 nM
  IL-8/CXCL8 Concentration, Mean: 58292.3 pg/mL
[2]; PBMC + LPS(5 ug/ml) + test article 500 nM, single replicates (1st, 2nd, 3rd)
  IL-8/CXCL8 Concentration: 60492.6 pg/mL and 59945.6 pg/mL and 54438.6 pg/mL
[2]; PBMC + test article 0.5 nM, no LPS
  IL-8/CXCL8 Concentration, Mean: 3635.9 pg/mL
[2]; PBMC + test article 0.5 nM, no LPS, single replicates (1st, 2nd)
  IL-8/CXCL8 Concentration: 1970.8 pg/mL and 5300.9 pg/mL
[2]; PBMC + test article 5 nM, no LPS
  IL-8/CXCL8 Concentration, Mean: 2809.1 pg/mL
[2]; PBMC + test article 5 nM, no LPS, single replicates (1st, 2nd)
  IL-8/CXCL8 Concentration: 3848.8 pg/mL and 1769.4 pg/mL
[2]; PBMC + test article 0.05 uM, no LPS
  IL-8/CXCL8 Concentration, Mean: 8117.7 pg/mL
[2]; PBMC + test article 0.05 uM, no LPS, single replicates (1st, 2nd)
  IL-8/CXCL8 Concentration: 13586.7 pg/mL and 2648.7 pg/mL
[2]; PBMC + test article 50 nM, no LPS
  IL-8/CXCL8 Concentration, Mean: 1630.9 pg/mL
[2]; PBMC + test article 50 nM, no LPS, single replicates (1st, 2nd)
  IL-8/CXCL8 Concentration: 2009.8 pg/mL and 1252.1 pg/mL
[2]; PBMC + test article 500 nM, no LPS
  IL-8/CXCL8 Concentration, Mean: 1641.8 pg/mL
[2]; PBMC + test article 500 nM, no LPS, single replicates (1st, 2nd)
  IL-8/CXCL8 Concentration: 1297.1 pg/mL and 1986.4 pg/mL
[2]; at as low as 5 μM, LPS 5 ug/mL 24 hrs
  LPS-induced IL-8 (in words): significantly reduced
